Where two headings read alike, the source gives them in different places.

The results in this text go back to US20100160255A1, “SPIRO-CYCLIC COMPOUND” (Takeda Pharmaceutical Company Limited, priority 2005, published 2010).

The target of one test is T1, human ACC1 (Homo sapiens, UniProt Q13085).
T1 construct: made in house; host or cells: SF-9 insect cells, recombinant baculovirus BAC-ACC1
The experiment in a line: ACC1 inhibitory activity (malachite green absorbance assay, recombinant enzyme). It counts as biochemical. Here is the method:
The ACC1 inhibitory activity of the compound of the present invention was evaluated by the following method.
Human ACC1 gene was cloned by PCR using human liver cDNA library (Clontech) as a template, and Primer 1 and Primer 2 shown below. Primer 1 and Primer 2 were prepared by adding recognition sequence of restriction enzymes SalI and NotI based on the information of the base sequence (Genbank Accession U19822) of human ACC1 gene.
PCR was performed using Pyrobest DNA polymerase (TAKARA BIO INC.). The obtained PCR product was cloned to pT7 Blue vector (Novagen) which was, after confirmation of the base sequence, digested with restriction enzymes SalI and NotI. The obtained DNA fragment was inserted into pFAST-BacHTc (Invitrogen) digested with restriction enzymes SalI and NotI to give expression plasmid ACC1/pFAST-BacHTc.
Using the expression plasmid and BAC-TO-BAC Baculovirus Expression System (Invitrogen), virus stock BAC-ACC1 of recombinant Baculovirus was prepared.
SF-9 cells (Invitrogen) were sown at 1×10^6 cells/mL to insect cell culture medium (1 L, Sf-900II SFM medium (Invitrogen) containing 10% fetal bovine serum (Trace), 50 mg/L gentamicin (Invitrogen) and 0.1% Pluronic F-68 (Invitrogen)), and shaking culture was performed using a 2 L volume Erlenmeyer flask at 27° C., 100 rpm.
After culturing for 24 hr, the recombinant Baculovirus BAC-ACC1 (10 mL) was added, and the mixture was further cultured for 3 days. The culture medium was centrifuged at 1000×g for 5 min to give virus-infected cells. The infected cells were washed with phosphate buffered saline (Invitrogen) and centrifuged under the same conditions, and the obtained cells were cryopreserved at −80° C.
The cryopreserved cells were thawed in ice, suspended in 25 mM HEPES buffer (100 mL, pH 7.5) containing 10% Glycerol, 0.13 M NaCl, 1 mM EDTA, 25 mM sodium β-glycerophosphate, 1 mM sodium orthovanadate, added with Complete Protease Inhibitor (Boehringer). The obtained suspension was homogenized 3 times with a Polytron homogenizer (Kinematica) at 20,000 rpm for 30 seconds. The obtained cell disrupt solution was clarified by centrifugation at 185700×g for 50 min and filtrated using a 0.45 μm filter. The filtrate was passed through a column packed with Ni-NTA Super Flow Gel (QIAGEN, 12 mL) at a flow rate of about 5 mL/min. The column was washed with buffer A (50 mM HEPES containing 0.3M NaCl, pH 7.5), further washed with buffer A containing 20 mM Imidazole, and eluted with buffer A containing 100 mM Imidazole. The eluate was concentrated with Vivaspin 20 (Vivascience) having a molecular weight cut off of 30 K. The obtained concentrate was dialyzed using Sephadex G-25 (Amersham Bioscience K.K., 358 mL) equilibrated with 50 mM HEPES (pH7.5) containing 10 mM MgCl2, 2 mM dithiothreitol, 10 mM tripotassium citrate and 0.3M NaCl. The dialysate was concentrated with Vivaspin 20 (Vivascience) having a molecular weight cut off of 30 K and the concentrate was filtered through a 0.22 μm filter to give ACC1. The obtained ACC1 was cryopreserved at −80° C.
ACC1 (0.93 mg/ml) obtained in (2) above was diluted to a concentration of 8 μg/ml with an enzyme reaction buffer (50 mM HEPES (pH7.5), 10 mM MgCl2, 10 mM tripotassium citrate, 2 mM dithiothreitol, 0.75 mg/ml fatty acid free BSA), and added to each well of a 384 well assay plate (Nunc 265196) by 10 μl. […]

The target of another test is T2, human ACC2 (Homo sapiens, UniProt O00763).
T2 construct: made in house; host or cells: SF-9 insect cells, recombinant baculovirus BAC-ACC2(Nd)
The experiment in a line: ACC2 inhibitory activity (malachite green absorbance assay, recombinant ACC2(Nd)). The class given is biochemical. Here is the method:
The ACC2 inhibitory activity of the compound of the present invention was evaluated by the following method.
Human ACC2 gene was cloned by PCR using human skeletal muscle cDNA library (Clontech) as a template, and Primer 1 and Primer 2 shown below. Primer 1 and Primer 2 were prepared by adding recognition sequence of restriction enzymes SalI and XbaI based on the information of the base sequence (Genbank Accession U89344) of human ACC2 gene.
PCR was performed using Pyrobest DNA polymerase (TAKARA BIO INC.). The obtained PCR product was cloned to pT7 Blue vector (Novagen) which was, after confirmation of the base sequence, digested with restriction enzymes SalI and XbaI. The obtained DNA fragment was inserted into pFAST-BacHTa (Invitrogen) digested with restriction enzymes SalI and XbaI to give expression plasmid ACC2/pFAST-BacHTa.
A plasmid for expression of ACC2 free of mitochondrial targeting sequence was prepared by PCR using the expression plasmid as a template, and Primer 3 and Primer 4 shown below.
PCR was performed using Pyrobest DNA polymerase (TAKARA BIO INC.). The obtained PCR product was cloned to pT7 Blue vector (Novagen) which was, after confirmation of the base sequence, digested with restriction enzymes SalI and AflII. The obtained DNA fragment was inserted into pFAST-BacHTa (Invitrogen) digested with restriction enzymes SalI and AflII to give expression plasmid ACC2mito7/pFAST-BacHTa.
Using the expression plasmid and BAC-TO-BAC Baculovirus Expression System (Invitrogen), virus stock BAC-ACC2 of recombinant Baculovirus (N terminal deletion (hereinafter Nd)) was prepared.
SF-9 cells (Invitrogen) were sown at 0.5×10^6 cells/mL to insect cell culture medium (2 L, Sf-900II SFM medium (Invitrogen) containing 10% fetal bovine serum (Trace), 50 mg/L gentamicin (Invitrogen) and 0.1% Pluronic F-68 (Invitrogen)), and shaking culture was performed using a Wave Bioreactor (Wave) under the conditions of 27° C., 20 rpm, rocking angle of 6° and oxygen concentration of 30%.
On day 4 of the culture, 3 L of an insect cell culture medium was added, the rocking angle was set to 8°, and the cells were further cultured. On day 5 of the culture, the recombinant Baculovirus BAC-ACC2(Nd) (100 mL) was added, 5 L of the insect cell culture medium was further added, the rocking angle was set to 11°, and the cells were cultured for 3 days. The culture medium was centrifuged at 1000×g for 10 min to give virus-infected cells. The infected cells were washed with phosphate buffered saline (Invitrogen) and centrifuged under the same conditions, and the obtained cells were cryopreserved at −80° C.
The cryopreserved cells were thawed in ice, suspended in 25 mM HEPES buffer (900 mL, pH 7.5) containing 10% Glycerol, 0.13 M NaCl, 1 mM EDTA, 25 mM sodium β-glycerophosphate, 1 mM sodium orthovanadate, added with Complete Protease Inhibitor (Boehringer). The obtained suspension was homogenized 3 times with a Polytron homogenizer (Kinematica) at 20,000 rpm for 30 seconds. The obtained cell disrupt solution was clarified by centrifugation at 31000×g for 60 min and filtrated using a 0.45 μm filter. The filtrate was passed through a column packed with Ni-NTA Super Flow Gel (QIAGEN, 60 mL) at a flow rate of about 5 mL/min. The column was washed with buffer A (50 mM HEPES containing 0.3M NaCl, pH 7.5), further washed with buffer A containing 20 mM Imidazole, and eluted with buffer A containing 100 mM Imidazole. The eluate was concentrated with Vivaspin 20 (Vivascience) having a molecular weight cut off of 30 K. The obtained concentrate was dialyzed against 50 mM HEPES (pH7.5) containing 10 mM MgCl2, 2 mM dithiothreitol, 10 mM tripotassium citrate and 0.3M NaCl. The dialysate was filtered through a 0.22 μm filter to give ACC2(Nd). The obtained ACC2(Nd) was cryopreserved at −80° C. […]

The mark [1] stands for this setting: Table 8, recombinant human ACC1, 30° C., absorbance 620 nm, read-out: IC50 (ACC1 inhibitory activity).
Setting [2] is: Table 9, recombinant human ACC2(Nd), N terminal deletion, 30° C., absorbance 620 nm, read-out: IC50 (ACC2 inhibitory activity).
Where [3] appears, read: Experimental Example 3, same manner as Experimental Example 1, read-out: IC50 values (ACC1 inhibitory activity).
Where [4] appears, read: Experimental Example 4, same manner as Experimental Example 2, read-out: IC50 values (ACC2 inhibitory activity).

T2 sequence (O00763 117-2458 limits assumed): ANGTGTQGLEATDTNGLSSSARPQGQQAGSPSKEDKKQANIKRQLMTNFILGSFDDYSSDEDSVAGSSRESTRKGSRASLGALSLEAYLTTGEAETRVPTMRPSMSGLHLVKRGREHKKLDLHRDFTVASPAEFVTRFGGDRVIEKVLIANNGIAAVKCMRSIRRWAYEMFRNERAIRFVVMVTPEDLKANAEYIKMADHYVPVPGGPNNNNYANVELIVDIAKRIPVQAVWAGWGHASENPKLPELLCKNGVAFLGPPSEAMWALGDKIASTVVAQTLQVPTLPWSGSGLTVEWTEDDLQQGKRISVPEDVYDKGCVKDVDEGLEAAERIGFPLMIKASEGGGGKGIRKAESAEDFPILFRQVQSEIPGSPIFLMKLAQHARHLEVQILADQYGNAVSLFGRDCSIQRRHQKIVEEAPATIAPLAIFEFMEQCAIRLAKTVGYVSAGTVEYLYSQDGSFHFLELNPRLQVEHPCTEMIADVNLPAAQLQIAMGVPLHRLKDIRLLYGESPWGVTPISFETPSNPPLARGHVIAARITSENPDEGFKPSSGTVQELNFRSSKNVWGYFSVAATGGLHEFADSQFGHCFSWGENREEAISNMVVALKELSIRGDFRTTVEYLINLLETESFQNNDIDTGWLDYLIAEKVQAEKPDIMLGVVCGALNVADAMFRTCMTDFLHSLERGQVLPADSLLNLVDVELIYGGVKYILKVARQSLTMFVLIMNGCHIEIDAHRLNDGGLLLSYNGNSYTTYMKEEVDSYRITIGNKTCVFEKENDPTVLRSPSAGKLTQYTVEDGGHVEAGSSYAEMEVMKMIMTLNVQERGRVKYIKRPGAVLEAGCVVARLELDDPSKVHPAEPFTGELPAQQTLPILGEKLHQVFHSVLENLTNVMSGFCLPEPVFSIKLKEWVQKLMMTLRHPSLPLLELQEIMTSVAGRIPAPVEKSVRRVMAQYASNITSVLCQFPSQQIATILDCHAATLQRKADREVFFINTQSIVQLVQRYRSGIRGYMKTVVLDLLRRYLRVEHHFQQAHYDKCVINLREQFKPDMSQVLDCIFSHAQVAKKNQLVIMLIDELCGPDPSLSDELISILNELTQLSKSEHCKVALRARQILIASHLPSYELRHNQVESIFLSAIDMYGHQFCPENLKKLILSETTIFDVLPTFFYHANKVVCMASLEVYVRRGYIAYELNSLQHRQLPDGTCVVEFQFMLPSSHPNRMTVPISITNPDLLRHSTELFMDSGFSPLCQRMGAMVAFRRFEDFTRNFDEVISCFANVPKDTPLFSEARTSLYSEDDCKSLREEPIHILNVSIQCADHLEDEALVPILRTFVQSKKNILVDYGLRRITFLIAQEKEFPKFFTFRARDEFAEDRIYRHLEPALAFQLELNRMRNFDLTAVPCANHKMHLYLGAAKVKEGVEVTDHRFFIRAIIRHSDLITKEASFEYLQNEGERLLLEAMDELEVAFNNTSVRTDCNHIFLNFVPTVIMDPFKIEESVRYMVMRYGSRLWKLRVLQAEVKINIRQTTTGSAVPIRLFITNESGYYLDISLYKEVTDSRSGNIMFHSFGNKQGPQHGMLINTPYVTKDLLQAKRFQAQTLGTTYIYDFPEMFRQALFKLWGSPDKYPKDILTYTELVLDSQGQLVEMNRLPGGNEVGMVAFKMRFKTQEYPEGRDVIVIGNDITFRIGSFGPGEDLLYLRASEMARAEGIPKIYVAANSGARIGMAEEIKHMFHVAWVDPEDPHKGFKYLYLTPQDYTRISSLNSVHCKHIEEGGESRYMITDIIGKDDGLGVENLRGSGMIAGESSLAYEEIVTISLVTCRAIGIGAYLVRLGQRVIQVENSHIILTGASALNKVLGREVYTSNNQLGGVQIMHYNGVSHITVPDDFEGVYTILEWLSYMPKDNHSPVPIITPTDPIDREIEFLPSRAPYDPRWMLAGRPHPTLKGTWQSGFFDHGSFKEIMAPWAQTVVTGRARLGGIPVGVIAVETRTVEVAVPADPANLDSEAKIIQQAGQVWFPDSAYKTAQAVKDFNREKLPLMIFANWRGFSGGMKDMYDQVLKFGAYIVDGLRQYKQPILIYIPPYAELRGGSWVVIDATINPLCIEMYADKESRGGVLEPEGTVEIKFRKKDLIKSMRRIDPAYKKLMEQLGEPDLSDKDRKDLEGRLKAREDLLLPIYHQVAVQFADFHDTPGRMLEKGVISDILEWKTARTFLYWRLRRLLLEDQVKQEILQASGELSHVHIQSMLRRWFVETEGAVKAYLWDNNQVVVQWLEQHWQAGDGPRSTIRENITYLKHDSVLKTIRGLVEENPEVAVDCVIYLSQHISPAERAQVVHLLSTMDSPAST

Turning to `CNC(=O)Nc1sc2ccccc2c1C(=O)N1CCC(N2CCCC3(CCN(C(C)C)C3=O)C2)CC1` (centres unmarked) [Example 360, N-(3-{[4-(2-isopropyl-1-oxo-2,7-diazaspiro[4.5]dec-7-yl)piperidin-1-yl]carbonyl}-1-benzothien-2-yl)-N′-methylurea], the IC50 came out at 110 nM at human ACC1 (setting [1]) and 22 nM at human ACC2 (setting [2]).
On to `CC(C)NC(=O)Nc1sc2ccccc2c1C(=O)N1CCC(N2CCCC3(CC(=O)NC3=O)C2)CC1` (centres unmarked) [Example 397, N-(3-{[4-(1,3-dioxo-2,7-diazaspiro[4.5]dec-7-yl)piperidin-1-yl]carbonyl}-1-benzothien-2-yl)-N′-isopropylurea], for which the IC50 at human ACC1 (setting [1]) came to 220 nM; on human ACC2 (setting [2]), 39 nM.
`CCNC(=O)Nc1sc2ccccc2c1C(=O)N1CCC(N2CCCC3(CCN(CC)C3=O)C2)CC1` (racemic) [Example 321, N-ethyl-N′-(3-{[4-(2-ethyl-1-oxo-2,7-diazaspiro[4.5]dec-7-yl)piperidin-1-yl]carbonyl}-1-benzothien-2-yl)urea]: the values for the half-inhibitory concentration (IC50) at human ACC1 (setting [1]) and at human ACC2 (setting [2]) were 360 nM and 34 nM, respectively.
With `CCNC(=O)Nc1sc(-c2ccccn2)cc1C(=O)N1CCC(N2CCCC3(C2)CC(C)(C)OC3=O)CC1` (centres unmarked) [Example 179, 1-(3-{[4-(3,3-dimethyl-1-oxo-2-oxa-7-azaspiro[4.5]dec-7-yl)piperidin-1-yl]carbonyl}-5-(pyridin-2-yl)-2-thienyl)-3-ethylurea], the half-inhibitory concentration (IC50) at human ACC1 (setting [3]) was at most 100 nM; on human ACC1 (setting [1]) it was 140 nM; at human ACC2 (setting [4]), at most 10 nM; on human ACC2 (setting [2]), 9 nM.
Consider `CCN1C(=O)CC2(CCCN(C3CCN(C(=O)c4c(NC(N)=O)sc5ccccc45)CC3)C2)C1=O` (centres unmarked) [Example 340, 1-(3-{[4-(2-ethyl-1,3-dioxo-2,7-diazaspiro[4.5]dec-7-yl)piperidin-1-yl]carbonyl)-1-benzothien-2-yl)urea], for which the IC50 on human ACC1 (setting [1]) is 130 nM; on human ACC2 (setting [2]), 22 nM.
Take `CCNC(=O)Nc1sc2ccccc2c1C(=O)N1CCC(N2CCCC3(CCN(CC)C3=O)C2)CC1` (centres unmarked) [Example 400, N-ethyl-N′-(3-{[4-(2-ethyl-1-oxo-2,7-diazaspiro[4.5]dec-7-yl)piperidin-1-yl]carbonyl}-1-benzothien-2-yl)urea]: the IC50 at human ACC1 (setting [3]) is at most 100 nM; on human ACC1 (setting [1]), 97 nM; on human ACC2 (setting [2]), 13 nM.
In the case of `CCNC(=O)Nc1sc2ccccc2c1C(=O)N1CCC(N2CCCC3(C2)N=C(C)N(CC)C3=O)CC1` (racemic) [Example 233, 1-ethyl-3-(3-{[4-(3-ethyl-2-methyl-4-oxo-1,3,7-triazaspiro[4.5]dec-1-en-7-yl)piperidin-1-yl]carbonyl}-1-benzothien-2-yl)urea], the figures for the IC50 at human ACC1 (setting [1]) and at human ACC2 (setting [2]) were 110 nM and 17 nM, respectively.
Taken in the same sequence, the figures for `CCN1C(=O)OC2(CCCN(C3CCN(C(=O)c4c(NC(=O)NC)sc5ccccc45)CC3)C2)C1=O` (centres unmarked) [Example 347, N-(3-{[4-(3-ethyl-2,4-dioxo-1-oxa-3,7-diazaspiro[4.5]dec-7-yl)piperidin-1-yl]carbonyl)-1-benzothien-2-yl)-N′-methylurea] were 310 nM and 34 nM.
Take `CCNC(=O)Nc1sc2ccccc2c1C(=O)N1CCC(N2CCCC3(C2)CC(C)(C)OC3=O)CC1` (single isomer, unassigned) [Example 319, N-(3-{[4-(3,3-Dimethyl-1-oxo-2-oxa-7-azaspiro[4.5]dec-7-yl)piperidin-1-yl]carbonyl}-1-benzothien-2-yl)-N′-ethylurea]: the IC50 was at most 100 nM on human ACC1 (setting [3]), 30 nM at human ACC1 (setting [1]), at most 10 nM on human ACC2 (setting [4]) and 5 nM at human ACC2 (setting [2]).
For `CCNC(=O)Nc1sc2ccccc2c1C(=O)N1CCC(N2CCCC3(C2)CC(C)(C)OC3=O)CC1` (centres unmarked) [Example 36, N-(3-{[4-(3,3-Dimethyl-1-oxo-2-oxa-7-azaspiro[4.5]dec-7-yl)piperidin-1-yl]carbonyl}-1-benzothien-2-yl)-N′-ethylurea], the half-maximal inhibitory concentration (IC50) at human ACC1 (setting [3]) is at most 100 nM; on human ACC1 (setting [1]) it was 79 nM; on human ACC2 (setting [4]), at most 10 nM; on human ACC2 (setting [2]) it was 8 nM.
As to `CCNC(=O)Nc1sc2ccccc2c1C(=O)N1CCC(N2CCCC3(C2)N=C(C)N(CC)C3=O)CC1` (centres unmarked) [Example 401, 1-ethyl-3-(3-{[4-(3-ethyl-2-methyl-4-oxo-1,3,7-triazaspiro[4.5]dec-1-en-7-yl)piperidin-1-yl]carbonyl}-1-benzothien-2-yl)urea], the IC50 was at most 100 nM at human ACC1 (setting [3]), 73 nM on human ACC1 (setting [1]) and 15 nM on human ACC2 (setting [2]).
As to `CCN1C(=O)CC2(CCCN(C3CCN(C(=O)c4c(NC(N)=O)sc5ccccc45)CC3)C2)C1=O` (racemic) [Example 240, 1-(3-{[4-(2-ethyl-1,3-dioxo-2,7-diazaspiro[4.5]dec-7-yl)piperidin-1-yl]carbonyl)-1-benzothien-2-yl)urea], the IC50 is 350 nM on human ACC1 (setting [1]) and 23 nM at human ACC2 (setting [2]).

As a reminder, the IC50 is the concentration that inhibits the measured activity by half.
